ChEMBL document CHEMBL1201862, “PubChem BioAssay data set” (2004)
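Step 1: Grow cells in 96-well plates. Step 2: Expose to compound for 48 hours at 5 concentrations. Step 3: Interpolate endpoints linearly; if unreached, use highest concentration. GI50 marks 50% less growth.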 The source made the active and inactive calls. Cut-off read from the data, not from the text of the source: active = GI50 up to about 1.1 µM and inactive = higher.

Key:
Test in all cases: growth of human tumour cells (NCI), 48 h
A549 = tested on: A549
CAKI-1 = tested on: CAKI-1
CCRF-CEM = tested on: CCRF-CEM
EKVX = tested on: EKVX
HL-60 = tested on: HL-60
K562 = tested on: K562
KM12 = tested on: KM12
M14 = tested on: M14
MOLT-4 = tested on: MOLT-4
NCI-H226 = tested on: NCI-H226
NCI-H23 = tested on: NCI-H23
NCI-H460 = tested on: NCI-H460
NCI-H522 = tested on: NCI-H522
OVCAR-5 = tested on: OVCAR-5
SF-295 = tested on: SF-295
SK-OV-3 = tested on: SK-OV-3
UACC-62 = tested on: UACC-62
HCT-15 = tested on: HCT-15

Compound | GI50 (A549) | GI50 (CAKI-1) | GI50 (CCRF-CEM) | GI50 (EKVX) | GI50 (HL-60) | GI50 (K562) | GI50 (KM12) | GI50 (M14) | GI50 (MOLT-4) | GI50 (NCI-H226) | GI50 (NCI-H23) | GI50 (NCI-H460) | GI50 (NCI-H522) | GI50 (OVCAR-5) | GI50 (SF-295) | GI50 (SK-OV-3) | GI50 (UACC-62) | GI50 (HCT-15) [µM]
O=C1CC2CCCC23CC2(CCN13)OCCO2 (stereo not given) | > 100 µM (inactive) | > 100 µM (inactive) | > 100 µM (inactive) | > 100 µM (inactive) | > 100 µM (inactive) | > 100 µM (inactive) | > 100 µM (inactive) | > 100 µM (inactive) | > 100 µM (inactive) | > 100 µM (inactive) | > 100 µM (inactive) | > 100 µM (inactive) | > 100 µM (inactive) | > 100 µM (inactive) | > 100 µM (inactive) | > 100 µM (inactive) | > 100 µM (inactive) | 
O=C(O)CCCSC(=O)Nc1ccc(/N=N/c2ccccc2)cc1 | > 100 µM (inactive) | > 100 µM (inactive) | 31.7 µM (inactive) | > 100 µM (inactive) |  | 65.9 µM (inactive) | > 100 µM (inactive) | > 100 µM (inactive) | 9.68 µM (inactive) | > 100 µM (inactive) | > 100 µM (inactive) | > 100 µM (inactive) | > 100 µM (inactive) | > 100 µM (inactive) | > 100 µM (inactive) |  | > 100 µM (inactive) | > 100
Oc1ccccc1-c1cnnc(-c2ccccc2O)c1 |  | 28.6 µM (inactive) | 13.4 µM (inactive) | 24.1 µM (inactive) | 19.8 µM (inactive) | 7.73 µM (inactive) |  | 22.2 µM (inactive) | 18.1 µM (inactive) | 42 µM (inactive) |  |  | 17.7 µM (inactive) | 28.6 µM (inactive) |  | 43.5 µM (inactive) | 17.5 µM (inactive) | 
CCCCCCCCCCCCCC(=O)OCC1OC(n2cc(F)c(=O)[nH]c2=O)C(N)C(OC(=O)CCCCCCCCCCCCC)C1O (stereo not given) | > 100 µM (inactive) | > 100 µM (inactive) | > 10 µM (inactive) | > 100 µM (inactive) | > 100 µM (inactive) | > 100 µM (inactive) | > 100 µM (inactive) | > 100 µM (inactive) | > 100 µM (inactive) |  | > 100 µM (inactive) | > 100 µM (inactive) | > 100 µM (inactive) |  | > 100 µM (inactive) | > 100 µM (inactive) | > 100 µM (inactive) | > 100
CCOC1=C2C(C)(CCC3[C@@]4(C)C=CC(=O)C(C)(C)C4CC(O)[C@@]23C)C(c2ccoc2)C1=O (stereo not given in full) | 21.1 µM (inactive) | 20.7 µM (inactive) | 7.93 µM (inactive) | 18.5 µM (inactive) | 14.4 µM (inactive) | 7.24 µM (inactive) | 15.2 µM (inactive) | 21.8 µM (inactive) | 7 µM (inactive) | 22 µM (inactive) | 13.1 µM (inactive) | 13.7 µM (inactive) |  | 19.2 µM (inactive) | 12.8 µM (inactive) | 26.4 µM (inactive) | 18.7 µM (inactive) | 11.7
CC[C@@]1(O)C(=O)OCc2c1cc1n(c2=O)Cc2cc3c(OC)cccc3nc2-1 |  |  | < 0.01 µM (active) | 2.04 µM (inactive) | < 0.01 µM (active) | 0.171 µM (active) | 0.867 µM (active) | 0.2 µM (active) | 0.14 µM (active) | 0.267 µM (active) | < 0.1 µM (active) |  | 0.145 µM (active) | 0.417 µM (active) | < 0.1 µM (active) | 0.117 µM (active) | < 0.1 µM (active) | 0.805
Cc1cc(Cl)cc2c1NC(=O)C2(O)CC(=O)c1ccc(F)cc1 (stereo not given) | 30.2 µM (inactive) | > 100 µM (inactive) |  | > 100 µM (inactive) |  |  | > 100 µM (inactive) | 88.5 µM (inactive) |  | 39.8 µM (inactive) | 61.1 µM (inactive) | 83.8 µM (inactive) |  | > 100 µM (inactive) | 53.8 µM (inactive) | > 100 µM (inactive) | 20 µM (inactive) | 74.1
O=C(/C=C/c1ccccc1O)c1ccccc1O | > 100 µM (inactive) | > 100 µM (inactive) | 5.74 µM (inactive) | > 100 µM (inactive) | > 100 µM (inactive) | 19.8 µM (inactive) | > 100 µM (inactive) |  | 18.7 µM (inactive) | 58.9 µM (inactive) | 76.2 µM (inactive) | > 100 µM (inactive) | > 100 µM (inactive) | > 100 µM (inactive) | 51.6 µM (inactive) | > 100 µM (inactive) | > 100 µM (inactive) | 35.9
CC1(C)OC2C(CCP(=O)(O)O)OC(c3nc(C(N)=O)cs3)C2O1 (stereo not given) | > 100 µM (inactive) | > 100 µM (inactive) | > 100 µM (inactive) | > 100 µM (inactive) |  | > 100 µM (inactive) | > 100 µM (inactive) | > 100 µM (inactive) | > 100 µM (inactive) | > 100 µM (inactive) | > 100 µM (inactive) | > 100 µM (inactive) | > 100 µM (inactive) | > 100 µM (inactive) |  | > 100 µM (inactive) | > 100 µM (inactive) | > 100
COc1ccc(NC(=O)/C(Cc2nc3ccccc3nc2O)=N\O)c(OC)c1 | > 100 µM (inactive) | > 100 µM (inactive) | > 100 µM (inactive) | > 100 µM (inactive) | > 100 µM (inactive) | > 100 µM (inactive) | > 100 µM (inactive) | > 100 µM (inactive) |  | > 100 µM (inactive) | > 100 µM (inactive) | > 100 µM (inactive) | > 100 µM (inactive) | > 100 µM (inactive) | > 100 µM (inactive) | > 100 µM (inactive) | > 100 µM (inactive) | > 100
CN(C)CCC(=O)/C=C\c1ccccc1 | 21.6 µM (inactive) | 18.3 µM (inactive) | 4.06 µM (inactive) | 18.7 µM (inactive) | 10.6 µM (inactive) | 13.2 µM (inactive) | 15 µM (inactive) | 16.7 µM (inactive) | 13.5 µM (inactive) | 23 µM (inactive) |  | 18.9 µM (inactive) | 18.9 µM (inactive) | 20.9 µM (inactive) | 20.3 µM (inactive) |  | 17.4 µM (inactive) | 16.1
COC(=O)C[C@H]1CCC2(OCCO2)[C@]1(C)C(=O)OC | > 100 µM (inactive) | > 100 µM (inactive) | > 100 µM (inactive) | > 100 µM (inactive) | > 100 µM (inactive) | > 100 µM (inactive) | > 100 µM (inactive) | > 100 µM (inactive) | > 100 µM (inactive) |  | > 100 µM (inactive) | > 100 µM (inactive) | > 100 µM (inactive) | > 100 µM (inactive) | > 100 µM (inactive) | > 100 µM (inactive) | > 100 µM (inactive) | > 100
C[C@]12CC[C@H](OC(=O)Cc3ccc(N(CCCl)CCCl)cc3)CC1CC[C@@H]1C2CC[C@]2(C)NC(=O)CCC12 (stereo not given in full) | 14.6 µM (inactive) | 3.92 µM (inactive) | 3.54 µM (inactive) |  | 2.48 µM (inactive) | 4.06 µM (inactive) | 11 µM (inactive) | 13.2 µM (inactive) | 3.08 µM (inactive) | 15.5 µM (inactive) | 11.8 µM (inactive) | 5.16 µM (inactive) | 10.7 µM (inactive) |  | 11.8 µM (inactive) | 17 µM (inactive) | 6.68 µM (inactive) | 13.9
Cc1cc(C)c2[s+]snc2c1 | 95.1 µM (inactive) | 93.8 µM (inactive) | 28.5 µM (inactive) | > 100 µM (inactive) | 18.3 µM (inactive) | 27.7 µM (inactive) | 95.7 µM (inactive) | 37.8 µM (inactive) | 33.9 µM (inactive) | > 100 µM (inactive) | 54 µM (inactive) | 75.7 µM (inactive) | 31.1 µM (inactive) | > 100 µM (inactive) | > 100 µM (inactive) | > 100 µM (inactive) | 36.6 µM (inactive) | 
CCOP(=O)(OCC)/C(C#N)=C\c1ccsc1 | > 100 µM (inactive) | > 100 µM (inactive) |  | > 100 µM (inactive) |  |  | > 100 µM (inactive) | > 100 µM (inactive) | > 100 µM (inactive) | > 100 µM (inactive) | > 100 µM (inactive) | > 100 µM (inactive) | > 100 µM (inactive) | > 100 µM (inactive) | > 100 µM (inactive) | > 100 µM (inactive) | > 100 µM (inactive) | > 100
CC(C)(CN1CCCCC1)C(=O)/C=C/c1ccc(Br)cc1 | 2.86 µM (inactive) | 0.887 µM (active) | 2.77 µM (inactive) | 2.12 µM (inactive) | 2.4 µM (inactive) | 2.59 µM (inactive) | 3 µM (inactive) | 2.29 µM (inactive) | 2.28 µM (inactive) | 5.78 µM (inactive) | 2.77 µM (inactive) |  | 1.82 µM (inactive) | 2.78 µM (inactive) | 5.09 µM (inactive) | 3.04 µM (inactive) | 6.56 µM (inactive) | 
CC(=O)O[C@H]1C(=O)[C@@]2(C)C(C(OC(=O)c3ccccc3)C3[C@@H](O)C(OC(=O)[C@@H](O)[C@H](NC(=O)c4ccccc4)c4ccc(C(F)(F)F)cc4)C(C)=C1C3(C)C)[C@]1(OC(C)=O)CO[C@@H]1C[C@@H]2O (stereo not given in full) | 17.9 µM (inactive) | > 25 µM (inactive) | 18.2 µM (inactive) | > 25 µM (inactive) | 7.98 µM (inactive) | 12.4 µM (inactive) |  | > 25 µM (inactive) | 11 µM (inactive) | > 25 µM (inactive) | > 25 µM (inactive) | 23.9 µM (inactive) | 7.59 µM (inactive) | > 25 µM (inactive) | > 25 µM (inactive) | > 25 µM (inactive) | 19.2 µM (inactive) | > 25
